In test [1] the target is T1, human β2 adrenergic receptor (Homo sapiens, UniProt P07550). The experiment in a line: Whole-cell cAMP Flashplate assay with a lung epithelial cell line (BEAS-2B) endogenously expressing human β2 adrenergic receptor (Assay Test Procedure E). Type of test: cell-based. The settings on record: BEAS-2B human lung epithelial cells, endogenous receptor. How it is done:
For the determination of agonist potencies and efficacies (intrinsic activities) in a cell line expressing endogenous levels of the β2 adrenergic receptor, a human lung epithelial cell line (BEAS-2B) was used (ATCC CRL-9609, American Type Culture Collection, Manassas, Va.) (January B, et al., British Journal of Pharmacology, 1998, 123, 4, 701-11). Cells were grown to 75-90% confluency in complete, serum-free medium (LHC-9 MEDIUM containing Epinephrine and Retinoic Acid, cat #181-500, Biosource International, Camarillo, Calif.). […] On the day of the assay, cells were rinsed with PBS, lifted by scraping with 5 mM EDTA in PBS, and counted. […] Plates were sealed, incubated over night at 4° C. and counted the next morning in a Topcount scintillation counter (Packard BioScience Co., Meriden, Conn.). The amount of cAMP produced per mL of reaction was calculated based on the counts observed for samples and cAMP standards, as described in the manufacturer's user manual. Data were analyzed by nonlinear regression analysis with the GraphPad Prism Software package (GraphPad Software, Inc., San Diego, Calif.) using the 4-parameter model for sigmoidal dose-response. […]

Test [2] has as its target T1, human β2 adrenergic receptor. Kind of test: Whole-cell cAMP Flashplate assay in CHO cell lines heterologously expressing human β2 adrenergic receptor (Assay Test Procedure C). The arrangement: expressed in transfected cells; host or cells: CHO cells, membranes. The class given is cell-based. How it is done:
cAMP assays were performed in a radioimmunoassay format using the Flashplate Adenylyl Cyclase Activation Assay System with [^125I]-cAMP (NEN SMP004, PerkinElmer Life Sciences Inc., Boston, Mass.), according to the manufacturers instructions. For the determination of β receptor agonist potency (EC50), CHO-K1 cell lines stably expressing cloned human β1, β2 or β3 adrenergic receptors were grown to near confluency in HAM's F-12 media supplemented with 10% FBS and Geneticin (250 μg/mL). Cells were rinsed with PBS and detached in dPBS (Dulbecco's Phosphate Buffered Saline, without CaCl2 and MgCl2) containing 2 mM EDTA or Trypsin-EDTA solution (0.05% trypsin/0.53 mM EDTA). After counting cells in Coulter cell counter, cells were pelleted by centrifugation at 1,000 rpm and re-suspended in stimulation buffer containing IBMX (PerkinElmer Kit) pre-warmed to room temperature to a concentration of 1.6×10^6 to 2.8×10^6 cells/mL. About 60,000 to 80,000 cells per well were used in this assay. […] The amount of cAMP produced (pmol/well) was calculated based on the counts observed for the samples and cAMP standards as described in the manufacturer's user manual. Data were analyzed by nonlinear regression analysis with the GraphPad Prism Software package (GraphPad Software, Inc., San Diego, Calif.) with the sigmoidal equation. […]

This note sets out measurements from patent publication US7829728B2, “Diarymethyl and related compounds” (Theravance, Inc., priority 2003, dated 2010).

T1 sequence (P07550 whole entry): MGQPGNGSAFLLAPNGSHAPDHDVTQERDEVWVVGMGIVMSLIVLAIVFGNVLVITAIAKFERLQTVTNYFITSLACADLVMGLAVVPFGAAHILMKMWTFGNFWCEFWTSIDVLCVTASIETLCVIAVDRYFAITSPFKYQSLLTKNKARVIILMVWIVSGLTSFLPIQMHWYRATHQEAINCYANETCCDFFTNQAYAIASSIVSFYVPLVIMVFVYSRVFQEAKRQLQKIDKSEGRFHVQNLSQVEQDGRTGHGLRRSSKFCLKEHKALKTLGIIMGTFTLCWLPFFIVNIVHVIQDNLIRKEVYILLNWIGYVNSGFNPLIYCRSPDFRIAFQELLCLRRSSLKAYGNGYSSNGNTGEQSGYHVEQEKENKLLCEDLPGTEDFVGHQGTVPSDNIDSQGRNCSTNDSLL

What is called EC50 is the concentration that produces a half-maximal response. Low readings indicate greater potency, high ones weaker potency. Turning to `NC(=O)C(c1ccccc1)(c1ccccc1)[C@@H]1CCN(CCCCCCCCCNCC(O)c2ccc(O)c3[nH]c(=O)ccc23)C1` (mixture of isomers) [Example 1, 2-((S)-1-{9-[2-Hydroxy-2-(8-hydroxy-2-oxo-1,2-dihydroquinolin-5-yl)ethylamino]-nonyl}pyrrolidin-3-yl)-2,2-diphenylacetamide], the EC50 in test [1] is below 10 nM; in test [2] (cAMP, CHO-K1 cells expressing cloned human β2 receptor), below 10 nM. In addition, in test [2] (receptor subtype selectivity, functional cAMP, human β1 versus β2), the “ratio of EC50(β1)/EC50(β2)” value is listed as “greater than 10”.
